The text below walks through data of PubChem BioAssay (NCI).

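96-well plates; 48 h exposure; 5 concentrations. Endpoints by linear interpolation between flanking doses. Not reached: highest tested concentration assigned. TGI: total growth inhibition.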

Among the test systems are RXF 393 renal; SF-295 CNS; HOP-92 NSCLC; SK-MEL-5 melanoma; MOLT-4 leukemia; OVCAR-4 ovarian; SK-MEL-2 melanoma; U251 CNS; SNB-75 CNS; OVCAR-5 ovarian.
Holding throughout (assay): DTP human tumour cell line panel, 48 h

With `O=C(/C=C1\N=C(c2ccccc2)N(c2nc3ccc(Sc4ccccc4)cc3[nH]2)C1=O)/C=C/c1ccccc1`, the TGI in the assay with RXF 393 renal was over 100 µM; in the assay on SF-295 CNS it was over 100 µM; in the assay on HOP-92 NSCLC, over 100 µM; in the assay with SK-MEL-5 melanoma it was 61.3 µM; in the assay on MOLT-4 leukemia, over 100 µM; in the assay with OVCAR-4 ovarian it was over 100 µM. The TGI is 41.5 µM in the assay on SK-MEL-2 melanoma, 81.3 µM with U251 CNS, 55.9 µM in the assay with SNB-75 CNS and over 100 µM in the assay with OVCAR-5 ovarian.
On to `CC(C)(C)OC(=O)NCCCCC(N)C(N)=O` (stereo not given), for which the TGI in the assay with RXF 393 renal, with SF-295 CNS, in the assay on HOP-92 NSCLC, in the assay with SK-MEL-5 melanoma, in the assay on MOLT-4 leukemia and with OVCAR-4 ovarian was over 100 µM throughout. Besides, the TGI with SK-MEL-2 melanoma, with U251 CNS, with SNB-75 CNS and in the assay with OVCAR-5 ovarian was over 100 µM each time.
As to `COc1cc2c(/C=C3/C(=O)N(C)c4ccccc43)c(Cl)[nH]c2cc1C`, the TGI was 70.5 µM in the assay on RXF 393 renal; 3.44 µM in the assay with SF-295 CNS; over 50.1 µM in the assay on HOP-92 NSCLC; 7.41 µM with SK-MEL-5 melanoma; 11.8 µM with MOLT-4 leukemia; 4.14 µM in the assay with OVCAR-4 ovarian. In addition, the TGI in the assay on SK-MEL-2 melanoma was 5.31 µM; in the assay on U251 CNS, 1.57 µM; in the assay with SNB-75 CNS, 46.2 µM; in the assay with OVCAR-5 ovarian it was over 57.2 µM.
On to `CC1(C)CC(=O)C(CCC(=O)/C=C/c2ccccc2)C(=O)C1`, for which the TGI with RXF 393 renal, in the assay with SF-295 CNS, in the assay on HOP-92 NSCLC, with SK-MEL-5 melanoma, in the assay on MOLT-4 leukemia and in the assay with OVCAR-4 ovarian was over 100 µM each time. Besides, the TGI with SK-MEL-2 melanoma, in the assay with U251 CNS, in the assay with SNB-75 CNS and in the assay with OVCAR-5 ovarian was over 100 µM throughout.
In the case of `N#Cc1c(N2CCCC2)nsc1NCc1ccccc1`, the TGI with RXF 393 renal, in the assay on SF-295 CNS, in the assay on HOP-92 NSCLC, in the assay on SK-MEL-5 melanoma, in the assay on MOLT-4 leukemia and in the assay with OVCAR-4 ovarian was over 100 µM throughout. Moreover, the TGI in the assay on SK-MEL-2 melanoma, in the assay on U251 CNS, in the assay on SNB-75 CNS and with OVCAR-5 ovarian was over 100 µM throughout.
Take `CCC(C#N)(c1ccccc1)N(CCc1ccccc1)C(=O)c1ccccc1` (stereo not given): the TGI in the assay on RXF 393 renal is 55.3 µM; in the assay on SF-295 CNS, over 100 µM; with HOP-92 NSCLC it was 45.2 µM; in the assay with SK-MEL-5 melanoma, over 100 µM; in the assay on MOLT-4 leukemia it was over 100 µM; in the assay with OVCAR-4 ovarian it was 44 µM. The TGI was over 100 µM in the assay with SK-MEL-2 melanoma, over 100 µM in the assay with U251 CNS, 78.7 µM with SNB-75 CNS and over 100 µM with OVCAR-5 ovarian.
For the molecule `O=P1(C(O)/C=C/c2ccccc2)N(Cc2ccccc2)[C@H](c2ccccc2)[C@@H](c2ccccc2)N1Cc1ccccc1` (stereo not given in full), the TGI with RXF 393 renal is over 100 µM; in the assay on SF-295 CNS, over 64.4 µM; in the assay on HOP-92 NSCLC, over 68.9 µM; in the assay on SK-MEL-5 melanoma, 41.2 µM; with MOLT-4 leukemia, over 100 µM; in the assay with OVCAR-4 ovarian it was over 100 µM. The TGI was 41.5 µM in the assay on SK-MEL-2 melanoma, over 100 µM with U251 CNS, over 83.6 µM in the assay with SNB-75 CNS and over 100 µM with OVCAR-5 ovarian.
For `CC(=N\N)/C(C)=N/N=C(C)/C(C)=N/N=C(C)/C(C)=N/N=C(C)/C(C)=N/N`, the TGI in the assay on RXF 393 renal, in the assay on SF-295 CNS, in the assay on HOP-92 NSCLC, in the assay with SK-MEL-5 melanoma, in the assay with MOLT-4 leukemia and in the assay on OVCAR-4 ovarian was over 100 µM each time. The TGI in the assay on SK-MEL-2 melanoma, in the assay with U251 CNS, in the assay with SNB-75 CNS and in the assay on OVCAR-5 ovarian was over 100 µM in each case.
For `O=C1/C(=C/c2ccccc2)CCCC1CN1CCCCC1` (stereo not given), the TGI is 3.76 µM in the assay with RXF 393 renal; 33.6 µM in the assay on SF-295 CNS; 6.05 µM with HOP-92 NSCLC; 15.6 µM with SK-MEL-5 melanoma; over 100 µM in the assay on MOLT-4 leukemia; 3.83 µM in the assay on OVCAR-4 ovarian. Also, the TGI is 15.8 µM in the assay on SK-MEL-2 melanoma, 27 µM in the assay on U251 CNS, 20.5 µM with SNB-75 CNS and 33.8 µM in the assay on OVCAR-5 ovarian.
As to `Cc1ccc(S(=O)(=O)N2CCCN(S(=O)(=O)c3ccc(C)cc3)CCN(S(=O)(=O)c3ccc(C)cc3)CCCSCC2)cc1`, the TGI in the assay on RXF 393 renal, in the assay on SF-295 CNS, in the assay on HOP-92 NSCLC, in the assay with SK-MEL-5 melanoma, in the assay on MOLT-4 leukemia and in the assay on OVCAR-4 ovarian was over 100 µM throughout. In addition, the TGI in the assay with SK-MEL-2 melanoma, with U251 CNS, in the assay on SNB-75 CNS and in the assay on OVCAR-5 ovarian was over 100 µM in each case.
Take `NNC(=O)CSc1nc2ccc(I)cc2c(=O)n1Cc1ccccc1`: the TGI worked out at 26.5 µM in the assay with RXF 393 renal; 53.7 µM in the assay on SF-295 CNS; 57 µM in the assay with HOP-92 NSCLC; 38.5 µM with SK-MEL-5 melanoma; 45.3 µM with MOLT-4 leukemia; 71.2 µM with OVCAR-4 ovarian. The TGI amounted to 46 µM in the assay with SK-MEL-2 melanoma, 40.8 µM with U251 CNS, 50.4 µM in the assay with SNB-75 CNS and 40.9 µM in the assay on OVCAR-5 ovarian.
Consider `CCc1ccc(N=Cc2cc(OC)c(OC)c(OC)c2)cc1`, for which the TGI with RXF 393 renal, in the assay with SF-295 CNS, in the assay on HOP-92 NSCLC, with SK-MEL-5 melanoma, with MOLT-4 leukemia and in the assay on OVCAR-4 ovarian was over 100 µM in each case. Moreover, the concentration for total growth inhibition (TGI) with SK-MEL-2 melanoma, in the assay with U251 CNS, in the assay with SNB-75 CNS and in the assay with OVCAR-5 ovarian was over 100 µM throughout.
In the case of `Cc1ccccc1C(=O)c1c(O)c2c(c(O)c1Br)CCCC2`, the TGI in the assay on RXF 393 renal was found to be 33.7 µM; in the assay with SF-295 CNS it was 47.9 µM; in the assay with HOP-92 NSCLC it was 40 µM; with SK-MEL-5 melanoma, 35.4 µM; in the assay with MOLT-4 leukemia it was 31.4 µM; in the assay with OVCAR-4 ovarian, 28.9 µM. For the same molecule, the TGI in the assay with SK-MEL-2 melanoma came out at 31.3 µM; with U251 CNS it was 31.5 µM; in the assay on SNB-75 CNS, 34.8 µM; in the assay with OVCAR-5 ovarian, 34.6 µM.
For the molecule `COC(=O)CCc1cc(OC)c(O)c(C(Cc2ccc(OC)c(OC)c2)C(=O)OC)c1` (stereo not given), the TGI in the assay with RXF 393 renal, in the assay with SF-295 CNS, with HOP-92 NSCLC, in the assay on SK-MEL-5 melanoma, with MOLT-4 leukemia and in the assay on OVCAR-4 ovarian was over 100 µM in each case. In addition, the TGI in the assay with SK-MEL-2 melanoma, in the assay on U251 CNS, with SNB-75 CNS and with OVCAR-5 ovarian was over 100 µM throughout.
As to `C=C(CN(C)C)C(=O)c1ccccc1C`, the TGI in the assay with RXF 393 renal was 17.6 µM; with SF-295 CNS it was over 100 µM; with HOP-92 NSCLC it was 33.3 µM; with SK-MEL-5 melanoma it was over 100 µM; in the assay with MOLT-4 leukemia it was 35.7 µM; with OVCAR-4 ovarian, over 100 µM. For the same molecule, the TGI in the assay with SK-MEL-2 melanoma, with U251 CNS, in the assay with SNB-75 CNS and in the assay on OVCAR-5 ovarian was over 100 µM in each case.
On to `Cc1c(C#N)c2nnn(-c3ccc(Cl)cc3)c(=O)n2c1-c1ccccc1`, for which the TGI in the assay with RXF 393 renal is 3.76 µM; in the assay on SF-295 CNS, 1.03 µM; in the assay with HOP-92 NSCLC, 25.7 µM; with SK-MEL-5 melanoma it was 1.3 µM; in the assay on MOLT-4 leukemia it was 42.3 µM; with OVCAR-4 ovarian, over 59.3 µM. Besides, the TGI in the assay on SK-MEL-2 melanoma came to 2.99 µM; with U251 CNS, 3 µM; in the assay with SNB-75 CNS it was 39.7 µM; in the assay with OVCAR-5 ovarian it was 32.1 µM.
For `O=c1cc(NCCCCCO)[nH]c(=O)[nH]1`, the TGI in the assay with RXF 393 renal, in the assay on SF-295 CNS, with HOP-92 NSCLC, in the assay with SK-MEL-5 melanoma, in the assay on MOLT-4 leukemia and in the assay with OVCAR-4 ovarian was over 100 µM each time. In addition, the TGI in the assay on SK-MEL-2 melanoma, with U251 CNS, in the assay with SNB-75 CNS and with OVCAR-5 ovarian was over 100 µM each time.
For the molecule `O=C(O)c1ccccc1NC(c1ccccc1)c1ccc2cccnc2c1O` (stereo not given), the TGI with RXF 393 renal is 27.7 µM; in the assay on SF-295 CNS, over 100 µM; in the assay on HOP-92 NSCLC, over 100 µM; in the assay with SK-MEL-5 melanoma, 24.5 µM; with MOLT-4 leukemia, 34 µM; with OVCAR-4 ovarian it was 34.6 µM. The TGI was over 100 µM with SK-MEL-2 melanoma, 21.8 µM in the assay on U251 CNS, over 86.7 µM with SNB-75 CNS and 58 µM with OVCAR-5 ovarian.
On to `CCCCCCCC1C(C)c2c([nH]c3ccccc23)C2C(=O)N(c3ccc(OC)cc3)C(=O)C21` (stereo not given), for which the TGI is 8.14 µM in the assay with RXF 393 renal; over 6.64 µM in the assay with SF-295 CNS; over 10 µM with HOP-92 NSCLC; over 10 µM in the assay on SK-MEL-5 melanoma; over 10 µM in the assay on MOLT-4 leukemia; 5.8 µM in the assay with OVCAR-4 ovarian. The TGI in the assay on SK-MEL-2 melanoma was over 10 µM; with U251 CNS it was 3.97 µM; in the assay with SNB-75 CNS, 3.91 µM; with OVCAR-5 ovarian it was over 10 µM.
As for `CN(C)CCOc1cccc2c1C(=O)c1ccccc1C2=O`, the TGI stood at 27.3 µM in the assay on RXF 393 renal; 29.3 µM in the assay with SF-295 CNS; 29 µM in the assay with HOP-92 NSCLC; 25.3 µM in the assay on SK-MEL-5 melanoma; 21.5 µM in the assay on MOLT-4 leukemia; 20.4 µM in the assay with OVCAR-4 ovarian. For the same molecule, the TGI in the assay with SK-MEL-2 melanoma was determined as 31.4 µM; in the assay with U251 CNS it was 72.5 µM; with SNB-75 CNS, 28.8 µM; with OVCAR-5 ovarian, 40.8 µM.
Take `Cc1c2c(c(C)n1-c1ccccc1)C(=O)N(CCCCN1CCN(c3ccccc3)CC1)C2=O`: the TGI is over 100 µM in the assay with RXF 393 renal; 53.7 µM in the assay on SF-295 CNS; 46.3 µM in the assay with HOP-92 NSCLC; 13.6 µM in the assay with SK-MEL-5 melanoma; 26.2 µM in the assay with MOLT-4 leukemia; 82.5 µM with OVCAR-4 ovarian. The TGI is 62.6 µM with SK-MEL-2 melanoma, 84.9 µM in the assay on U251 CNS, over 100 µM with SNB-75 CNS and over 100 µM with OVCAR-5 ovarian.
